Reference: the supplement of paper PMC11061612

Experiments:
Assay in all cases: Bliss excess, mean over the matrix (fraction); higher = more synergy
[1] = tested on: COR-L95 (Small Cell Lung Carcinoma)
In short: (§1)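 Cell lines in DMEM/F12 or RPMI with 10% FBS were plated in 1536-well plates, held 24 hours at 37°C, 5% CO2, then given two-drug dose matrices for 72 hours (DMSO typically 0.2%). Viability was read by CellTiter-Glo 2.0 luminescence and scaled as inhibition from 0 (vehicle wells) to 1 (blank wells). Combination Emax is the second-highest inhibition in the matrix; Bliss excess is observed combination effect minus expected EA + EB − EA·EB, EA and EB being single-agent effects.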

[2] = tested on: TGBC24TKB (Biliary Tract Carcinoma)
In short: as §1

[3] = tested on: NCI-H1793 (Lung Adenocarcinoma)
In short: as §1

[4] = tested on: JiyoyeP-2003 (Burkitt's Lymphoma)
In short: as §1

[5] = tested on: NCI-H1694 (Small Cell Lung Carcinoma)
In short: as §1

IGR-1 (Melanoma) = tested on: IGR-1 (Melanoma)
In short: as §1

[6] = tested on: MFH-ino (Other Solid Carcinomas)
In short: as §1

NCI-H2369 (Mesothelioma) = tested on: NCI-H2369 (Mesothelioma)
In short: as §1

NCI-H2595 (Mesothelioma) = tested on: NCI-H2595 (Mesothelioma)
In short: as §1

[7] = tested on: KARPAS-620 (Plasma Cell Myeloma)
In short: as §1

[8] = tested on: SW1783 (Low Grade Glioma)
In short: as §1

[9] = tested on: NCI-H1299 (Non-Small Cell Lung Carcinoma)
In short: as §1

[10] = tested on: SW756 (Cervical Carcinoma)
In short: as §1

[11] = tested on: NCI-H1781 (Lung Adenocarcinoma)
In short: as §1

[12] = tested on: LS-513 (Colorectal Carcinoma)
In short: as §1

[13] = tested on: KARPAS-1106P (B-Cell Non-Hodgkin's Lymphoma)
In short: as §1

[14] = tested on: KATOIII (Gastric Carcinoma)
In short: as §1

[15] = tested on: OCI-AML2 (Acute Myeloid Leukemia)
In short: as §1

[16] = tested on: SW1990 (Pancreatic Carcinoma)
In short: as §1

[17] = tested on: C3A (Hepatocellular Carcinoma)
In short: as §1

Compound | Bliss excess [1] | Bliss excess [2] | Bliss excess [3] | Bliss excess [4] | Bliss excess [5] | Bliss excess (IGR-1 (Melanoma)) | Bliss excess [6] | Bliss excess (NCI-H2369 (Mesothelioma)) | Bliss excess (NCI-H2595 (Mesothelioma)) | Bliss excess [7] | Bliss excess [8] | Bliss excess [9] | Bliss excess [10] | Bliss excess [11] | Bliss excess [12] | Bliss excess [13] | Bliss excess [14] | Bliss excess [15] | Bliss excess [16] | Bliss excess [17]
Cc1cc2ncnn2cc1Nc1ncc2c(n1)n(C1CCOCC1)c(=O)n2C [AZD7648] + CCN(CCO)CCCOc1ccc2c(Nc3cc(CC(=O)Nc4cccc(F)c4)[nH]n3)ncnc2c1 [AZD2811] (first compound max 10 µM, 7x7, partner max 1 µM) | -0.003 | -0.0157 | -0.005 | 0.0829 | 0.0483 | -0.0224 | -0.0094 | 0.0252 | 0.0183 | 0.0088 | 0.0063 | 0.0093 | -0.0209 | 0.0239 | -0.0033 | 0.0642 | -0.0526 | -0.0004 | -0.0199 | 0.0219
COc1nnc2ccc(N3CCC(c4ccc(OCCN5CCN(C)C(=O)[C@H]5C)cc4)CC3)nn12 [AZD5153] + C=CCn1c(=O)c2cnc(Nc3ccc(N4CCN(C)CC4)cc3)nc2n1-c1cccc(C(C)(C)O)n1 [AZD1775] (first compound max 1 µM, partner max 1 µM) | 0.0012 | -0.0367 | -0.0548 | -0.0401 | -0.0205 | 0.0203 | -0.0837 | -0.0392 | -0.0353 | -0.0559 | -0.0531 | -0.0278 | -0.05 | -0.0744 | -0.0603 | -0.0966 | -0.148 | -0.0293 | -0.0567 | 0.0547
Cn1cnc2c(F)c(Nc3ccc(Br)cc3Cl)c(C(=O)NOCCO)cc21 [Selumetinib] + C=CCn1c(=O)c2cnc(Nc3ccc(N4CCN(C)CC4)cc3)nc2n1-c1cccc(C(C)(C)O)n1 [AZD1775] (first compound max 10 µM, partner max 1 µM) | -0.0464 | -0.0027 | -0.0764 | -0.0563 | -0.067 | 0.0466 | -0.0316 | -0.0624 | -0.0443 | 0.0719 | -0.0939 | -0.02 | -0.0882 | -0.063 | -0.0339 | -0.0358 | 0.0186 | 0.0274 | 0.0134 | -0.022
CC(=O)c1c(C)c2cnc(Nc3ccc(N4CCNCC4)cn3)nc2n(C2CCCC2)c1=O [Palbociclib] + Cn1cnc2c(F)c(Nc3ccc(Br)cc3Cl)c(C(=O)NOCCO)cc21 [Selumetinib] (first compound max 10 µM, 7x7, partner max 10 µM) | -0.0843 | 0.0495 | -0.012 | 0.0443 | -0.0989 | 0.0661 | -0.0237 | -0.0483 | -0.0429 | 0.166 | -0.0447 | 0.108 | -0.0736 | -0.0532 | 0.0207 | 0.0399 | 0.0393 | 0.0685 | -0.0228 | -0.0011
Cc1cc2ncnn2cc1Nc1ncc2c(n1)n(C1CCOCC1)c(=O)n2C [AZD7648] + O=C(c1cc(Cc2n[nH]c(=O)c3ccccc23)ccc1F)N1CCN(C(=O)C2CC2)CC1 [Olaparib] (first compound max 10 µM, 7x7, partner max 10 µM) | -0.0158 | -0.0128 | -0.0616 | 0.0339 | -0.0004 | -0.0032 | -0.0705 | -0.05 | -0.0258 | -0.0306 | -0.042 | -0.03 | -0.0174 | -0.0204 | -0.0387 | -0.0538 | -0.0367 | -0.0289 | -0.054 | -0.0505
CC1(C)CCC(CN2CCN(c3ccc(C(=O)NS(=O)(=O)c4ccc(NCC5CCOCC5)c([N+](=O)[O-])c4)c(Oc4cnc5[nH]ccc5c4)c3)CC2)=C(c2ccc(Cl)cc2)C1 [Venetoclax] + C[C@@H]1COCCN1C2=NC(=NC(=C2)C3(CC3)[S@](=N)(=O)C)C4=C5C=CNC5=NC=C4 [AZD6738] (first compound max 1 µM, 7x7, partner max 10 µM) | -0.0056 | -0.0188 | 0.0073 | 0.0139 | 0.0443 | 0.0165 | -0.0926 | -0.0247 | 0.0027 | 0.0235 | -0.0555 | -0.0203 | -0.0249 | 0.0284 | -0.0591 | -0.0213 | -0.0859 | 0.0166 | -0.0556 | -0.0503
CN(CCO)CC[C@H](CSc1ccccc1)Nc1ccc(S(=O)(=O)NC(=O)c2ccc(N3CCC([C@@H](O)c4ccccc4-c4ccc(Cl)cc4)CC3)cc2)cc1S(=O)(=O)C(F)(F)F [AZD4320] + CCN(CCO)CCCOc1ccc2c(Nc3cc(CC(=O)Nc4cccc(F)c4)[nH]n3)ncnc2c1 [AZD2811] (first compound max 1 µM, 7x7, partner max 1 µM) | 0.0522 | 0.0337 | -0.0421 | 0.057 | 0.169 | 0.148 | -0.0406 | 0.0005 | -0.032 | 0.0899 | -0.0701 | -0.0237 | -0.0334 | -0.0788 | -0.0584 | 0.0326 | -0.0434 | 0.0189 | -0.0214 | -0.0487
CC(=O)c1c(C)c2cnc(Nc3ccc(N4CCNCC4)cn3)nc2n(C2CCCC2)c1=O [Palbociclib] + Cc1c2c(nn1C)CSCc1cc(n(C)n1)CSc1cc(c3ccccc3c1)OCCCc1c(C(=O)O)n(C)c3c-2c(Cl)ccc13 [AZD5991] (first compound max 10 µM, 7x7, partner max 1 µM) | -0.0112 | 0.0597 | -0.0299 | -0.0436 | -0.073 | 0.0047 | -0.042 | -0.0593 | -0.0622 | 0.0443 | -0.0248 | 0.0018 | -0.0749 | -0.0608 | -0.0235 | -0.0645 | 0.0505 | 0.004 | -0.0427 | 0.0027
COc1nnc2ccc(N3CCC(c4ccc(OCCN5CCN(C)C(=O)[C@H]5C)cc4)CC3)nn12 [AZD5153] + CC1(C)CCC(CN2CCN(c3ccc(C(=O)NS(=O)(=O)c4ccc(NCC5CCOCC5)c([N+](=O)[O-])c4)c(Oc4cnc5[nH]ccc5c4)c3)CC2)=C(c2ccc(Cl)cc2)C1 [Venetoclax] (first compound max 1 µM, 7x7, partner max 1 µM) | 0.0382 | -0.0456 | -0.0104 | -0.0302 | 0.0045 | -0.0221 | -0.0608 | -0.0641 | 0.0185 | -0.0637 | -0.0347 | -0.0496 | -0.0461 | -0.0599 | -0.0442 | -0.0308 | -0.0861 | -0.0422 | -0.0448 | -0.105
Cc1c2c(nn1C)CSCc1cc(n(C)n1)CSc1cc(c3ccccc3c1)OCCCc1c(C(=O)O)n(C)c3c-2c(Cl)ccc13 [AZD5991] + Cc1cc2ncnn2cc1Nc1ncc2c(n1)n(C1CCOCC1)c(=O)n2C [AZD7648] (first compound max 1 µM, 7x7, partner max 10 µM) | -0.0957 | -0.0102 | -0.0112 | 0.0725 | -0.0059 | -0.0642 | -0.018 | 0.0018 | 0.0034 | 0.0308 | -0.0408 | -0.0436 | -0.0367 | -0.105 | 0.002 | -0.0016 | -0.0305 | 0.019 | -0.0398 | -0.0312
COc1cccc(OCCCN)c1-c1cc(Nc2cnc(C#N)cn2)n[nH]1 [Prexasertib] + CN(C)CCCOc1ccc(-c2ccc3ncc4c(c3c2)n(C2CCOCC2)c(=O)n4C)cn1 [AZD0156] (first compound max 1 µM, 7x7, partner max 1 µM) | -0.0723 | -0.0414 | -0.0227 | -0.0003 | -0.0433 | 0.0399 | 0.0142 | -0.0016 | -0.0573 | 0.0277 | -0.0111 | -0.0332 | -0.0179 | -0.0803 | 0.0156 | -0.0308 | -0.0053 | -0.0276 | -0.0247 | 0.0035
CS(=O)(=O)CCNCc1ccc(-c2ccc3ncnc(Nc4ccc(OCc5cccc(F)c5)c(Cl)c4)c3c2)o1 [Lapatinib] + C[C@@H](Oc1cc(-c2cnn(C3CCNCC3)c2)cnc1N)c1c(Cl)ccc(F)c1Cl [Crizotinib] (first compound max 10 µM, 7x7, partner max 10 µM) | -0.0529 | -0.0058 | -0.0351 | -0.0186 | 0.025 | -0.0282 | -0.0902 | -0.0253 | -0.0198 | -0.0459 | -0.0306 | -0.0677 | -0.0138 | -0.0715 | -0.023 | -0.0483 | 0.0169 | -0.0813 | -0.0042 | -0.0963
Cc1c2c(nn1C)CSCc1cc(n(C)n1)CSc1cc(c3ccccc3c1)OCCCc1c(C(=O)O)n(C)c3c-2c(Cl)ccc13 [AZD5991] + CC1(C)CCC(CN2CCN(c3ccc(C(=O)NS(=O)(=O)c4ccc(NCC5CCOCC5)c([N+](=O)[O-])c4)c(Oc4cnc5[nH]ccc5c4)c3)CC2)=C(c2ccc(Cl)cc2)C1 [Venetoclax] (first compound max 1 µM, 7x7, partner max 1 µM) | 0.0616 | -0.0051 | -0.0081 | 0.0249 | 0.076 | 0.2 | -0.0512 | -0.0027 | -0.0384 | 0.119 | -0.0164 | -0.031 | -0.0331 | -0.0597 | -0.0523 | -0.0146 | -0.0176 | 0.143 | -0.0317 | -0.0519
CN(CCO)CC[C@H](CSc1ccccc1)Nc1ccc(S(=O)(=O)NC(=O)c2ccc(N3CCC([C@@H](O)c4ccccc4-c4ccc(Cl)cc4)CC3)cc2)cc1S(=O)(=O)C(F)(F)F [AZD4320] + C[C@@H](Nc1cc(F)cc(F)c1)c1cc(C(=O)N(C)C)cc2c(=O)cc(N3CCOCC3)oc12 [AZD8186] (first compound max 1 µM, 7x7, partner max 3 µM) | 0.0256 | 0.0011 | 0.0516 | 0.0195 | 0.0454 | 0.0019 | -0.0163 | -0.0251 | 0.0344 | 0.0147 | -0.0348 | 0.0118 | -0.0213 | 0.0358 | -0.0076 | 0.0758 | -0.0856 | 0.0556 | 0.0048 | 0.0183
